Source: PubChem BioAssay (NCI)
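Assay format: 96-well plates, 48-hour exposure. TGI marks complete inhibition of growth.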

Columns and labels:
Test in all cases: NCI anticancer screen, dose series, 48 h
SK-MEL-28 melanoma = tested on: SK-MEL-28 melanoma
HS 578T breast = tested on: HS 578T breast
MDA-MB-231 breast = tested on: MDA-MB-231 breast
MALME-3M melanoma = tested on: MALME-3M melanoma
MDA-MB-435 = tested on: MDA-MB-435
OVCAR-3 ovarian = tested on: OVCAR-3 ovarian
NCI-H522 lung = tested on: NCI-H522 lung
PC-3 prostate = tested on: PC-3 prostate
HOP-92 NSCLC = tested on: HOP-92 NSCLC
UACC-62 melanoma = tested on: UACC-62 melanoma
MDA-N = tested on: MDA-N
SK-MEL-2 melanoma = tested on: SK-MEL-2 melanoma
T-47D breast = tested on: T-47D breast
NCI/ADR-RES ovarian = tested on: NCI/ADR-RES ovarian
DU-145 prostate = tested on: DU-145 prostate
DMS 273 small cell lung = tested on: DMS 273 small cell lung
DLD-1 colon = tested on: DLD-1 colon
XF 498 CNS = tested on: XF 498 CNS
SNB-78 CNS = tested on: SNB-78 CNS
DMS 114 small cell lung = tested on: DMS 114 small cell lung

SMILES	TGI (SK-MEL-28 melanoma) [µM]	TGI (HS 578T breast) [µM]	TGI (MDA-MB-231 breast) [µM]	TGI (MALME-3M melanoma) [µM]	TGI (MDA-MB-435) [µM]	TGI (OVCAR-3 ovarian) [µM]	TGI (NCI-H522 lung) [µM]	TGI (PC-3 prostate) [µM]	TGI (HOP-92 NSCLC) [µM]	TGI (UACC-62 melanoma) [µM]	TGI (MDA-N) [µM]	TGI (SK-MEL-2 melanoma) [µM]	TGI (T-47D breast) [µM]	TGI (NCI/ADR-RES ovarian) [µM]	TGI (DU-145 prostate) [µM]	TGI (DMS 273 small cell lung) [µM]	TGI (DLD-1 colon) [µM]	TGI (XF 498 CNS) [µM]	TGI (SNB-78 CNS) [µM]	TGI (DMS 114 small cell lung) [µM]
Cc1cc(C)nc(NS(=O)(=O)c2ccc(Nc3c4ccccc4nc4c(C(=O)NCCCN(CCO)CCO)cccc34)cc2)n1	31.2	65.5	88.6	33.6	40.6	> 100	28.2	> 100	> 100	60.4	83.7	34.8	> 100	> 100	> 100					
COc1nc(SC)nc2c1cnn2C1OC(C(O)CO)C(OC)C1O (stereo not drawn)	> 100			> 100		> 100	> 100			> 100		> 100		> 100		> 100	> 100	> 100	> 100	> 100
Cc1[nH]c(=O)nc(N/N=C/c2ccc(Cl)cc2)c1C(=O)NC(C)(CO)CO	> 100	> 100		> 100	> 100	> 100		> 100	> 100	> 100	> 100	> 100	> 100	> 100	> 100					
COc1cc(C2C(Cl)C(=O)N2NC(=O)c2ccccc2O)ccc1O (stereo not drawn)	> 100			> 100		> 100	> 100			> 100		> 100				> 100	> 100	> 100	> 100	> 100
CC1(C23CC4CC(CC(C4)C2)C3)n2c(=O)n(-c3ccccc3)c(=O)n2C1(C)C12CC3CC(CC(C3)C1)C2 (stereo not drawn)	> 100	> 100	> 100		> 100	> 100		> 100	> 100	> 100	> 100	> 100	> 100	> 100	> 100					
CCOC(=O)c1csc(NC(=O)CCN2CCCCC2)n1	> 100		> 100	> 100	> 100	> 100		> 100	> 100	> 100	> 100	> 100	> 100	> 100	> 100					
CCCCC(C)C1CCC2(C)C=CC(=O)C(C)=C2C1O (stereo not drawn)	> 100					> 100	> 100		> 100	> 100		> 100		> 100		> 100	> 100	> 100	> 100	> 100
CON(C)C(C#N)=C(C#N)C#N	> 10	> 10	> 10	> 10	> 10	> 10	> 10	> 10		> 10	> 10	> 10	> 10	> 10	> 10					
